Source: patent publication US10548994B1, “Control of chronic neuropathic pain and allodynia” (STC.UNM, priority 2013, dated 2020)
Entries after “also recorded” stand apart in the source; their conditions may differ.

How the values were obtained:
[1] = test system: rats with sciatic nerve chronic constriction injury (CCI); assay: Sciatic nerve chronic constriction injury (CCI) allodynia, von Frey test; format: in vivo, rat; settings: for reversal of CCI-induced mechanical allodynia: 10 days after CCI
Excerpt: Glial (astrocytes, microglia, satellite & Schwann) cells are recognized as contributing to the development and maintenance of neuropathic pain [86]. Glia are well-known to serve a number of housekeeping functions for healthy neuronal communication. […] Glia have receptors for and are activated by invading pathogens, neuropeptides and neurotransmitters. Once activated, glia can contribute to persistent pathological pain by responding to and releasing factors that act on both neurons and surrounding glia. Classic immune signals include the pro-inflammatory cytokines, interleukin-1 (IL-1β) and tumor necrosis factor-alpha (TNF-α), and chemokines such as CCL2 [139, 142]. Chronic constriction injury (CCI) is a well-characterized animal model that involves both inflammation and trauma around one sciatic nerve. Loose sciatic nerve ligation of 4 sutures produces allodynia in hind paws of rodents. Allodynia in rodents is often measured by hind paw responses to low threshold mechanical stimuli (von Frey test). Clinically, allodynia is well-documented as a common problem for neuropathic pain patients, and the von Frey test is a highly validated assessment tool for allodynia. Several gene therapy vector approaches for neuropathic pain control are being pursued for directed delivery to the dorsal spinal cord & DRG (the pain compartments) & to specific cell types within those compartments, such as glial cells in the DRG (satellite & Schwann cells) or astrocytes and microglia in the dorsal horn of the spinal cord, with one recent clinical trial underway.
We sought to identify the best vector system, either of the viral-based adeno-associated virus (AAV) or the non-viral DNA-based vector (plasmid DNA; pDNA), to achieve therapeutic pain control when delivered to the spinal subarachnoid space (IT). […] While successful, the viral vectors were short-lived in their effects when one considers clinical neuropathic pain control. […] While continued progress toward designing improved viral vector systems may be worthy of future exploration, the optimal vector identified for long-duration pain control during the current grant period was determined to be free pDNA encoding the IL-10 gene (FIG. 2). Behavioral pain assessment is conducted as previously described. Briefly, rats are placed in a quite, dimly lit room and allowed to habituate to the testing environment for 4 consecutive days, 1 hr/day. Baseline (BL) responses are assessed with a series of graded calibrated filaments (0.4 g-15.0 g) applied to the plantar surface of the hindpaws for 6 sec, which elicits a reliable paw withdrawal response. The pDNA-based vector used in data described here and in ‘Preliminary Data’ contains inverted terminal repeat (ITRs) palindromic nucleotide sequences that are residual components from the original AAV vector and provide additional promoter activity, albeit, somewhat weak.. Therefore ITRs would only serve to augment the transcription driven by the expression cassette. The transcriptional cassette contains the cytomegalovirus enhancer/chicken b-actin promoter (CB-actin promoter), an intronic region, the rat IL-10 gene with a spontaneous point mutation (F129S) and the SV40 polyadenylation signal region.
The animal models used in the experiments of this example extend to the well characterized & widely used model of peripheral neuropathy—sciatic nerve chronic constriction injury which combines both direct trauma plus inflammation to the sciatic nerve. When the peripheral nerves become unhealthy, neuropathic pain often ensues. This model combines both inflammation from loosely tied chromic gut ligatures that leads to a localized inflammation followed by slight constriction. In this model, spinal cord glia are activated, PICs are produced and blocking the actions of glia & PICs prevents and reverses neuropathic pain.
This stimulus elicits a paw withdrawal response. Under normal conditions, rats respond to about 10 g of pressure. […]

leukocytes = settings: prior work; cited from earlier work
[2] = test system: RAW 264.7 macrophage cells; assay: LPS-induced NO production in RAW 264.7 macrophage cells; format: cell-based, mouse; settings: NorBIRT 500 ng/ml pre-treatment 1, 2, 4 h; LPS 500 ng/ml 24 h
Procedure: The ability of NorBIRT to inhibit LPS-induced NO production in RAW 264.7macrophage cells was tested. Cells were pre-treated with NorBIRT (500 ng/ml) for 1, 2, and 4 h then exposed to LPS (500 ng/ml) for 24 h.

TNF-α = TNF-α protein (ELISA) in LPS stimulated RAW 264.7 cells; format: cell-based, mouse; settings: NorBIRT 500 ng/ml 1 h, LPS 500 ng/ml 4 and 24 h
Procedure: In this experiment, cells were incubated with NorBIRT (500 ng/ml; 1 h) and after treatment with LPS (500 ng/ml; 4 and 24 h) the protein levels of TNF-α was evaluated by ELISA.

IL-1β = IL-1β (ELISA) in supernatants and cell lysates of LPS-stimulated RAW 264.7 cells; format: cell-based, mouse; settings: NorBIRT 500 ng/ml pretreatment, LPS 500 ng/ml
Procedure: Additionally, RAW 264.7 cells were pretreated with 500 ng/ml of NorBIRT and were stimulated with LPS (500 ng/ml). The levels of IL-1β were measured by ELISA, (A) supernatants and (B) celllysates. […] FIG. 22 illustrates that NorBIRT inhibits LPS-stimulated expression of IL-1β in RAW 264.7 cells.
(§1) Given the intriguing profile of NorBIRT's actions on reversing allodynia, we examined whether NorBIRT additionally altered proinflammatory cytokine levels. […] Intracellular IL-1b requires enzymatic cleavage to produce the mature released form. […] Thus NorBIRT is blocking the release of mature IL-1b. […] So, NorBIRT may additionally have anti-inflammatory properties.

IL-10 = IL-10 protein (ELISA) in LPS-stimulated RAW 264.7 cells; format: cell-based, mouse; settings: co-incubation with NorBIRT and LPS 500 ng/ml
Procedure: Protein levels of Il-10 were evaluated using ELISA.
as §1

CCL2 = assay: LPS-stimulated CCL2 production in RAW 264.7 cells; format: cell-based, mouse; settings: NorBIRT 500 ng/ml 1 h; LPS 500 ng/ml 24 h; supernatants and cell lysates
Procedure: RAW 264.7 cells were also pretreated with NorBIRT (500 ng/ml) for 1 h before being incubated with LPS (500 ng/ml) for 24 h. The culture supernatant was analyzed for CCL2 production in both, supernatants and celllysates.

LFA-1 = assay: LPS-stimulated LFA-1 protein expression (ELISA, cell lysates) in RAW 264.7 cells; format: cell-based, mouse; settings: NorBIRT 500 ng/ml 2 and 4 h, LPS 500 ng/ml 24 h
Procedure: Further, RAW 264.7 cells were pretreated with NorBIRT (500 ng/ml) for 2 and 4 h before being incubated with LPS (500 ng/ml). After 24 h of incubation, LFA-1 was measured in celllysates by ELISA.

RAW 264.7 cells [3] = assay: Mouse macrophage cell migration in response to CCL2; format: cell-based; settings: recombinant mouse CCL2 (2D-100 ng/ml)
Procedure: Mouse macrophages cell migration in response to CCL2 was assessed with recombinant mouse CCL2 (2D-100 ng/ml) in RAW 264.7 cells. Latrunculin was used as a positive control to inhibit cell migration.

RAW 264.7 cells [4] = assay: WST-1 cytotoxicity/viability assay; format: cell-based, mouse; settings: 50, 100, SOO, and 1000 ng/ml, 24 h
Procedure: RAW 264.7 cells were treated with NorBIRT for the indicated concentrations (50, 100, SOO, and 1000 ng/ml) for 24 h. Cytotoxicity was analyzed using an WST-1 assay. The WST-1 conversion assay was based on the mitochondrial function of intact cells.

[5] = test system: 111In-leukocytes in lumbosacral spinal canal of CCI rats; assay: SPECT/CT imaging of 111In-labeled leukocyte accumulation in lumbosacral spinal canal; format: in vivo, rat; settings: NorBIRT injected vs saline
Excerpt: Initially, we determined that peripheral leukocytes accumulate in spinal regions that are necessary for pain signaling. We used a small animal SPECT/CT imaging system (single-photon emission computerized tomography) which was very similar to PET imaging, but which had better resolution. […] Blocking spinal leukocyte accumulation may be a novel therapeutic target promising for future clinical applications.
We next investigated whether peripheral immune cells in addition to spinal glia could participate in ongoing pain changes. First, it was determined whether leukocytes could extravasate into the lumbosacral region during ongoing neuropathy. Peritoneal leukocytes from same-strain donor rats were collected and labeled with a gamma-emitting radio-isotope […] and injected i.v. into either CCI or sham treated rats. Biodistributions were examined using a small animal SPECT/.
We quantified radioactivity—in uCis—in very discrete spinal regions of interest related to incoming sciatic pain information. We determined discrete differences in the levels of uCi activity within specific Lumbar vertebra and from the underlying L4-L6 spinal canal, even the associated intervertebral disc regions. We analyzed the L4-L6 spinal canal

[6] = test system: rats with sciatic nerve chronic constriction injury (CCI); settings: IT IL-10 protein 4 hr prior to IT pDNA-IL10; cited from earlier work
[7] = test system: innate immune cells (macrophage, dendritic cells); settings: IT IL-10 protein 4 hr prior to IT pDNA-IL10; cited from earlier work
[8] = i.t. 10-fold higher dose of NorBIRT (Example 10)

With “IL-1 receptor antagonist: blocks spinal cord actions of IL1; drug with short half-life” the “time of return of allodynia” value ([1]; intrathecal IL-1 receptor antagonist) was at most 24 h and the effect on allodynia ([1]; intrathecal, after CCI) was “completely abolishes”.

In the case of CN1C(=O)N(c2cc(Cl)cc(Cl)c2)C(=O)[C@@]1(C)Cc1ccc(Br)cc1 [BIRT-377, reference compound], the “antiproliferative and anti-migratory properties of leukocytes” value (leukocytes) is given as “exert antiproliferative and anti-migratory properties”.

For C[C@@]1(Cc2ccc(Br)cc2)C(=O)N(c2cc(Cl)cc(Cl)c2)C(=O)N1CCCCCN [NorBIRT], the “LPS-induced NO production” value [2] was “inhibits”, the “expression (protein levels) of TNF-α” value (TNF-α) was “attenuates” and the “IL-1β release / LPS-stimulated expression (supernatants)” value (IL-1β) was “reduced; also recorded: attenuated; also recorded: inhibits”. For the same molecule, the “intracellular IL-1β (cell lysates)” value (IL-1β) was “substantially increased”, the “IL-10 protein levels / release” value (IL-10) was “increases; also recorded: dose-dependently increased” and the “LPS-stimulated CCL2 production” value (CCL2) was “does not inhibit”. For the same molecule, the “LPS-stimulated LFA-1 protein expression” value (LFA-1) was “inhibits”, the “macrophage cell migration in response to CCL2” value (RAW 264.7 cells [3]) was “inhibits” and the “viability of RAW 264.7 cells” value (RAW 264.7 cells [4]) was “does not affect”. For the same molecule, the change in allodynia ([1]; 500 ng i.v. NorBIRT vs saline, 48 and 72 hrs later) was “significant change; also recorded: reverses”, the allodynia fully returned ([1]; after i.t. NorBIRT (Example 11)) was at most 10 days and the “reversal of 45-day enduring allodynia” value ([1]; higher dose i.t. NorBIRT on day 45) was “substantially reversed”. The reversal of allodynia ([1]; i.t. 5 ng NorBIRT vs saline (Example 10)) was “very modestly reversed”, the return of allodynia [1, 8] was at most 9 days and the reversal of allodynia [1, 8] was “substantial reversal”. For the same molecule, the “reversal of 10-day CCI-induced bilateral mechanical allodynia” value ([1]; i.t. NorBIRT vs i.t. vehicle (Example 11)) was “reversed”, the “time of peak effect after injection” value ([1]; i.t. NorBIRT, compared to sham controls) was “four” and the effect on allodynia ([1]; i.t. higher dose 100 ng vs vehicle (Example 11)) was “dramatic reversal”. The effect on allodynia ([1]; i.t. low dose 5 ng vs vehicle (Example 11)) was “lacking effects”, the effect on allodynia ([1]; i.v. 5000 ng) was “attenuated allodynia bilaterally” and the effect on allodynia ([1]; i.v. 100 000 ng) was “attenuated allodynia bilaterally”. The “dose-dependent reversal from allodynia” value ([1]; i.v. low dose, 5 days after injection, vs saline) was “did not produce”, the “reversal of CCI-induced mechanical allodynia” value ([1]; i.v. low dose, second experiment) was “did not reverse” and the “dose-dependent reversal from allodynia” value ([1]; i.v. low dose, throughout 8 days after injection, vs Sham) was “does not produce”. For the same molecule, the “reversal of CCI-induced mechanical allodynia” value ([1]; i.v., relatively high doses, first experiment) was “reverses”, the “leukocyte accumulation (uCi signal) in lumbosacral spinal canal” value [5] was “no signal” and the “antiproliferative and anti-migratory properties of leukocytes” value (leukocytes) was “exert antiproliferative and anti-migratory properties”.

B1: IL-10 protein: IT IL-10 protein (without transgene) (protein, UniProt P22301 19-178, looked up)
Interleukin-10: SPGQGTQSENSCTHFPGNLPNMLRDLRDAFSRVKTFFQMKDQLDNLLLKESLLEDFKGYLGCQALSEMIQFYLEEVMPQAENQDPDIKAHVNSLGENLKTLRLRLRRCHRFLPCENKSKAVEQVKNAFNKLQEKGIYKAMSEFDIFINYIEAYMTMKIRN
In the case of B1, the “long duration pain relief after IT pDNA-IL-10” value [6] is listed as “prevented” and the “cellular enrichment in surrounding CSF after IT pDNA-IL10” value [7] is listed as “prevented”.
